Data as given in US10844049B2, “GLP-1R agonists and uses thereof” (QILU REGOR THERAPEUTICS INC., priority 2018, dated 2020).

Target: GLP1R (Homo sapiens, UniProt P43220)
Assay: GLP1R cAMP HTRF assay, HEK293/GLP-1R/CRE/Luc (HEK293T cells)
Format: cell-based
Details: read-out: EC50
Outline: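 cAMP accumulation via HTRF after 30 min, 37 °C exposure of 1000 receptor-expressing cells/well to compound (0.5% DMSO final) in IBMX (500 μM)/0.1% BSA DPBS.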

Chain of GLP1R (P43220 24-463): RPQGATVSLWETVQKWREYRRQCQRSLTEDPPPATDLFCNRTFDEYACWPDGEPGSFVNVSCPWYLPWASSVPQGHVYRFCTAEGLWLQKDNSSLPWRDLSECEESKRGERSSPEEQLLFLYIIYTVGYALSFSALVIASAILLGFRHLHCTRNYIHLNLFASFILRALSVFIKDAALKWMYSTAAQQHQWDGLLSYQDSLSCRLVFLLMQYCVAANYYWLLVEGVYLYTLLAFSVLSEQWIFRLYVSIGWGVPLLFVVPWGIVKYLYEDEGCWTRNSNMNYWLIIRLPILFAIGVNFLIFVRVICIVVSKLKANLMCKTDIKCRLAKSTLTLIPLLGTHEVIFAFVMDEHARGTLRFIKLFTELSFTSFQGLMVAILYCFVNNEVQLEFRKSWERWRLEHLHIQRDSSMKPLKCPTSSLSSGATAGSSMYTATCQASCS

EC50 [nM] | SMILES
≤ 15 | O=C(O)c1ccc2nc(CN3CC=C(c4nccc(OCc5ccc(C#CC6CC6)cc5F)n4)CC3)n(C[C@@H]3CCO3)c2c1 [Compound 200, (S)-2-((4-(4-((4-(cyclopropylethynyl)-2-fluorobenzyl)oxy)pyrimidin-2-yl)-3,6-dihydropyridin-1(2H)-yl)methyl)-1-(oxetan-2-ylmethyl)-1H-benzo[d]imidazole-6-carboxylic acid]
≤ 150 | O=C(O)c1ccc2nc(CN3CCC(c4cccc(OCc5ccc(C#CC6CC6)cc5F)c4)CC3)n(C[C@@H]3CCO3)c2c1 [Compound 192, (S)-2-((4-(3-((4-(cyclopropylethynyl)-2-fluorobenzyl)oxy)phenyl)piperidin-1-yl)methyl)-1-(oxetan-2-ylmethyl)-1H-benzo[d]imidazole-6-carboxylic acid]
≤ 1000 | N#Cc1ccc(COc2ccc(F)c(N3CCN(Cc4nc5ccc(C(=O)O)cc5n4C[C@@H]4CCO4)CC3)c2)c(F)c1 [Compound 197, (S)-2-((4-(5-((4-cyano-2-fluorobenzyl)oxy)-2-fluorophenyl)piperazin-1-yl)methyl)-1-(oxetan-2-ylmethyl)-1H-benzo[d]imidazole-6-carboxylic add]
≤ 150 | O=C(O)c1ccc2nc(CN3CC=C(c4cccc(OCc5ccccn5)n4)CC3)n(C[C@@H]3CCO3)c2c1 [Compound 159, (S)-1-(oxetan-2-ylmethyl)-2-((6-(pyridin-2-ylmethoxy)-5′,6′-dihydro-[2,4′-bipyridin]-1′(2′H)-yl)methyl)-1H-benzo[d]imidazole-6-carboxylic acid]
≤ 15 | O=C(O)c1ccc2nc(CN3CC=C(c4cccc(OCc5ccc(F)c(F)c5)n4)CC3)n(C[C@@H]3CCO3)c2c1 [Compound 145, (S)-2-((6((3,4-difluorobenzyl)oxy)-3′,6′-dihydro-[2,4′-bipyridin]-1′(2′H)-yl)methyl)-1-(oxetan-2-ylmethyl)-1H-benzo[d]imidazole-6-carboxylic acid]
> 1000 | O=C(O)c1ccc2nc(CN3CCC(c4ccc5ccn(Cc6ccc(Cl)cc6F)c5c4)CC3)n(C[C@@H]3CCO3)c2c1 [Compound 26, (S)-2-((4-(1-(4-chloro-2-fluorobenzyl)-1 h-indol-6-yl)piperidin-1-yl)methyl)-1-(oxetan-2-ylmethyl)-1 h-benzo[d]imidazole-6-carboxylic acid]
≤ 15 | N#Cc1ccc(COc2nc(C3=CCN(Cc4nc5ccc(C(=O)O)cc5n4C[C@@H]4CCO4)CC3)c(F)cc2F)c(F)c1 [Compound 212, (S)-2-((6-((4-cyano-2-fluorobenzyl)oxy)-3,5-difluoro-3′,6′-dihydro-[2,4′-bipyridin]-1′(2′H)-yl)methyl)-1-(oxetan-2-ylmethyl)-1H-benzo[d]imidazole-6-carboxylic add]
≤ 150 | O=C(O)c1ccc2nc(CN3CCCN(c4cccc(OCc5ccc(Cl)cc5F)n4)CC3)n(C[C@@H]3CCO3)c2c1 [Compound 15, (S)-2-((4-(6-(4-chloro-2-fluorobenzyloxy)pyridin-2-yl)-1,4-diazepan-1-yl)methyl)-1-(oxetan-2-ylmethyl)-1 h-benzo[d]imidazole-6-carboxylic acid]
≤ 1000 | O=C(O)c1ccc2nc(CN3CC=C(c4ccc(=O)n(CCc5ccc(Cl)cc5F)n4)CC3)n(C[C@@H]3CCO3)c2c1 [Compound 20, (S)-2-((4-(1-(4-chloro-2-fluorophenethyl)-6-oxo-1,6-dihydropyridazin-3-yl)-5,6-dihydropyridin-1(2H)-yl)methyl)-1-(oxetan-2-ylmethyl)-1 h-benzo[d]imidazole-6-carboxylic acid]
≤ 1000 | O=C(O)c1ccc2nc(CN3CC=C(c4ccc(F)c(OCc5ccc(Cl)cc5F)c4F)CC3)n(C[C@@H]3CCO3)c2c1 [Compound 63, (S)-2-((4-(3-(4-chloro-2-fluorobenzyloxy)-2,4-difluorophenyl)-5,6-dihydropyridin-1(2H)-yl)methyl)-1-(oxetan-2-ylmethyl)-1H-benzo[d]imidazole-6-carboxylic acid]
